The values below come from ChEMBL document CHEMBL1134165, “Anthraquinone-peptides as inhibitors of AP-1 transcription factor” (Bioorg Med Chem Lett, 2001).

What all share (assay type): nucleic-acid assay
What all share (conditions): Bos taurus

Assay [1] deals with Nucleic Acid. Kind of assay: Delta Tm is the difference between the melting temperature of calf thymus DNA in the presence and absence of 2-peptide conjugate at a 10:1 ratio of DNA/drug.
Assay [2] concerns Nucleic Acid. Briefly: Percent maximum loss of ethidium bromide (EtBr) fluorescence bound to DNA (ratio 1:3) in presence of 2-peptide conjugate.
The test system of assay [3] is Nucleic Acid. Briefly: Delta Tm is the difference between the melting temperature of calf thymus DNA in the presence and absence of 2-peptide conjugate at a 10:1ratio of DNA/drug.

As for H-AAKCRAA-OH, the ΔTm in the assay with Nucleic Acid [1] worked out at 6.

As for H-AKCRA-OH, in the assay with Nucleic Acid [1], the ΔTm stood at 7.5.

With H-AKCRDA-OH, the Quench in the assay on Nucleic Acid [2] is 5%. Further, the ΔTm in the assay with Nucleic Acid [1] is 5.5.

As to H-AKCRDRA-OH, in the assay on Nucleic Acid [1], the ΔTm was found to be 10.3.

Regarding H-AKCRKA-OH, the ΔTm with Nucleic Acid [1] stood at 7.3.

Consider H-AKCRKRA-OH, for which the Quench with Nucleic Acid [2] turned out to be 45%. Further, the ΔTm in the assay with Nucleic Acid [1] is 9.

Regarding H-AKSRA-OH, in the assay with Nucleic Acid [1], the ΔTm was 5.5.

In the case of H-ARCKA-OH, the ΔTm with Nucleic Acid [3] stood at 4.8.
